Laboratory results as given in US11096891B2, “Hybrid muco-adhesive delivery systems and use thereof” (TECHNION RESEARCH & DEVELOPMENT FOUNDATION LIMITED, priority 2016, dated 2021).
Blank lines part the entries; values can stand above or below the compound they belong to.

Experiments:
[1] = test system: CAL-27 cells; assay: CellTiter-Glo viability, alginate pastes on permeable tissue culture inserts; format: cell-based, human; conditions: alginate paste hybrid system
Method: In order to examine the effectivity of the proposed hybrid system, alginate pastes with empty liposomes, free drug and drugs loaded liposomes were tested for their effect on CAL-27 cells using permeable tissue culture inserts. Cell viability was determined using the Cell Titer-Glo® assay (see Table 6 below showing the relative cell viability obtained after 24 and 48 hr of treatment with hybrid system and FIG. 25).

[2] = Liposome release from alginate pastes spread on tongue tissue; format: physicochemical; conditions: 3% Ca+2-Ba+2 cross-linked alginate paste, simulated saliva buffer pH 6.8, 37° C.
Method: Alginate-fluorescein containing liposomes pastes were prepared by dissolving 30, 40 or 50 mg alginate-fluorescein in 0.4 mL DDW and 0.6 mL of fluorescently labeled liposome solution. The mixtures were stirred until homogenous viscous solutions were achieved. Alginate-fluorescein paste (50 μL) was spread on porcine's tongue tissue (1 cm×1 cm) which was glued with cyanoacrylate glue to a weight and placed in a vail with […] saliva buffer, pH 6.8. One sample (paste on a tissue) was inserted into dialysis bag and the absorbance of this sample was used as a blank. The vail was immersed in a shaking water/ethylene-glycole bath at 37° C. and 25 rpm. An aliquot (200 μL) of eluted liposome medium was removed for quantification; this volume was replaced with fresh buffer. The release of alginate-fluorescein and liposome was quantified by measuring the fluorescence (alginate-fluorescein: λex420 nm, λem530 nm, labeled liposome: λex530 nm, […]) of the release media at different time points.
pastes were prepared by dissolving 40 mg alginate or alginate-SH, or 300 mg alginate-PEGAc.
Alginate paste (50 μL) was spread on a piece of tissue which was glued with cyanoacrylte glue to a weight and placed in a vail with 10 ml 0.01M PBS, pH=6.8. […] An aliquot (200 μL) of eluted liposome medium was removed for quantification; this volume was replaced with fresh buffer. […]

[3] = Release of fluorescent dye from alginate paste on porcine tongue under shear flow; format: physicochemical; conditions: after two hours, 0.01M PBS pH 6.8, 37° C.
Excerpt: A home-made apparatus was designed, based on a flow cell for assessing the mucoadhesion of pastes and viscous polymer solutions under shear flow conditions. The experiment was set up by mixing viscous solution of alginate with the fluorescent dye solution, by that, the fluorescent dye was non-covalently attached to alginate. The pastes were spread on a slice of porcine tongue simulating the target tissue. The tissue holding the paste was placed in a vial and was subject to shear flow while immersed in PBS solution (see FIG. 1A).

[4] = test system: CAL-27 cells; assay: MTT cell viability assay; format: cell-based, human; conditions: 24 and 48 hr
Method: The cytotoxicity of chemotherapeutic drugs to CAL-27 cells was determined using the MTT assay. Cells were plated in 96-well plate in density of 50,000 cells per well in a total volume of 200 μl medium. After 24 hours the cells were treated with different drugs and liposomes for 24 h and 48 h. All experiments were done in quadruplicates.
Cell viability was evaluated by MTT assay, a colorimetric assay based on the ability of viable cells to reduce a soluble yellow MTT substrate to a blue formazan crystal by mitochondrial succinate dehydrogenase activity of viable cells. This test is a good index of mitochondrial activity and thus of cell viability. After 24 or 48 hr of treatment, the medium was aspirated, and 100 μL of MTT, 1 mg/mL in PBS were added to each well. After MTT addition the plates were covered and returned to the incubator at 37° C. for 2 hr, the optimal time for formazan product formation. […] The absorbance was measured at 570 nm and the background absorbance measured at 690 nm.
In exemplary procedures, alginate gels incorporating either empty or doxorubicin loaded liposomes were prepared as described above, in a volume of 100 μL each with liposome proportion of 6.7%, 16.7% and 33.3% (v/v). […] Viability was measured using the MTT assay. […]

- Release of doxorubicin from cross-linked pastes [2]: similar, and sustained
SMILES: COc1cccc2c1C(=O)c1c(O)c3c(c(O)c1C2=O)C[C@@](O)(C(=O)CO)C[C@@H]3O[C@H]1C[C@H](N)[C@H](O)[C@H](C)O1 [Free Doxorubicin, doxorubicin]
- Relative cell viability 24 h ([1]; 24 h): 0.04 ± 0.008
- Relative cell viability 48 h ([1]; 48 h): 0.00 ± 0.000

- Release of fluorescent marker to external PBS solution [3]: completely released
SMILES: CCN(CC)c1ccc2c(-c3ccc(S(=O)(=O)O)cc3S(=O)(=O)[O-])c3ccc(=[N+](CC)CC)cc-3oc2c1 [fluorescent marker, sulforhodamine B]

SMILES: O=c1[nH]cc(F)c(=O)[nH]1 [5-FU free drug, 5-fluorouracil]
- Toxicity to cancer cells, drug loaded liposomes versus free drug [4]: slower in action and therefore seemed less efficient within the 48 hr experiment
